The values that follow are results of earlier work, collected in patent publication US20030212274A1, “Novel amorphous form of omeprazole salts” (priority 2003, published 2003).

The conditions of series [1]: storage at +37° C., relative humidity 80%, 6 months (accelerated conditions).

Where two headings read alike, the source gives them in different places.

Consider `COc1ccc2[nH]c([S+]([O-])Cc3ncc(C)c(OC)c3C)nc2c1` (stereo not drawn) [Omeprazole, 5-methoxy-2-[(4-methoxy-3,5-dimethyl-2-pyridinyl)-methyl]sulfinyl-1H-benzimidazole], for which the “half-life of degradation in water solutions” value is, setting by setting: (pH-values less than four) “ten”; (pH=7) “about 14 hours”. The “substance converted to degradation products” value in series [1] is listed as “about 6%”.
